We go through two compounds from BindingDB's records for doi:10.1016/j.bmc.2008.11.012 (Nippon Shinyaku, 2009).

The Ki is the dissociation constant of the complex between target and ligand, obtained from inhibition or displacement. A low value points to tighter binding.

For one assay, the target named is Mu-type opioid receptor (Rattus norvegicus, UniProt P33535). The assay can be described thus: Receptor Binding Assay. As for the experimental part: (§1) Competitive binding displacement analysis was performed with membranes prepared from CHO-K1 cells stably expressing receptors. After incubation, samples were collected on GF/B glass-fiber, washed, and counted for radioactivity. IC50 values were obtained by fitting the competition binding curves according to a 4-parameter logistic model. Inhibition constants Ki were derived from the Cheng-Prusoff equation.

A further assay concerns the target Nociceptin receptor (Homo sapiens, UniProt P41146). Briefly: Receptor Binding Assay. To be noted: pH 7.8; 25 °C. As for the experimental part: as §1

The structures appear in SMILES notation.

Sequence of Nociceptin receptor (P41146 whole entry): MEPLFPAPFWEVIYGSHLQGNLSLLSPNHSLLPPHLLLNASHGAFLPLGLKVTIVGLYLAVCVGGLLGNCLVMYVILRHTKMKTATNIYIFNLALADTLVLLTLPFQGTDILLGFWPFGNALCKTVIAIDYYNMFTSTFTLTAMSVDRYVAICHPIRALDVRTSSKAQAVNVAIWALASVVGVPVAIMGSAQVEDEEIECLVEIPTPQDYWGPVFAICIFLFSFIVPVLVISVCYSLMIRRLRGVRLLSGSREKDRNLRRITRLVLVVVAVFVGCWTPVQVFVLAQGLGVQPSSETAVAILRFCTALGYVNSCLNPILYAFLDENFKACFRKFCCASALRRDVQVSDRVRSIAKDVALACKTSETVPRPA
Sequence of Mu-type opioid receptor (P33535 whole entry): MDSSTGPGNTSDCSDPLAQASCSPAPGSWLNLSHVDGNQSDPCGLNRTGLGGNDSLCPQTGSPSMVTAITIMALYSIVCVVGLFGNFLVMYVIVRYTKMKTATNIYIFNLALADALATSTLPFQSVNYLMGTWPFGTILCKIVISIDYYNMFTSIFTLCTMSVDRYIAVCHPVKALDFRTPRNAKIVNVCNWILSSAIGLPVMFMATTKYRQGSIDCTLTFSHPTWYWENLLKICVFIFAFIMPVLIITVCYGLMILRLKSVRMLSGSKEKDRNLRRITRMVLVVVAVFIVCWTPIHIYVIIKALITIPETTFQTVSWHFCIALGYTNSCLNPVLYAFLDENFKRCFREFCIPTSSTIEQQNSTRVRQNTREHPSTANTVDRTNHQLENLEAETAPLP

In the case of `Cc1ccc2nc(C=Cc3ccc(Cl)cc3)nc(N[C@H]3CCCC[C@H]3NC(=N)N)c2c1` (racemic) [(1R,2S)-2-({2-[(E)-2-(4-chlorophenyl)ethenyl]-6-methylquinazolin-4-yl}amino)cyclohexane-1-guanidine], the Ki on Mu-type opioid receptor turned out to be 220 nM; at Nociceptin receptor, 43 nM.
With `Cc1ccc2nc(C=Cc3ccc(Cl)cc3)nc(N[C@H]3CC[C@@H](N=C(N)N)CC3)c2c1` [4-({2-[(E)-2-(4-chlorophenyl)ethenyl]-6-methylquinazolin-4-yl}amino)cyclohexane-1-guanidine], the results for the Ki at Mu-type opioid receptor and on Nociceptin receptor were 60 nM and 152 nM, respectively.
